Consider 30 compounds from patent US12527779B2, “Prostaglandin E2 (PGE2) EP4 receptor antagonists” (Domain Therapeutics, priority 2019, dated 2026).

The assay deals with T1, human EP4 (hEP4) receptor (Homo sapiens, UniProt P35408).
T1 construct: expressed in transfected cells; host or cells: HEK-293 T cells, transient co-transfection with polyethylenimine
Put plainly: In vitro human EP4 functional antagonist activity using BRET biosensors (cAMP EPAC biosensor, TCS2510 stimulation). It is filed as cell-based. The conditions noted are these: antagonist activity vs EC60 TCS2510, hEP4 in HEK-293 T cells. Summed up: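 Antagonism measured as inhibition of EC60 TCS2510-induced cAMP BRET signal (EPAC luciferase/GFP sensor) in transiently hEP4-expressing HEK-293T cells, following 5 min compound preincubation and 10 min luminescence recording. Plates equilibrated 1 h at 22 °C in HEPES buffer; 10 concentrations over 4.5 logs, duplicate in two independent experiments, sigmoidal variable-slope IC50.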
A general note: BRET reads energy transfer from a luciferase to a nearby fluorophore.

Structures can show the parent of a compound that is named as a salt.

T1 sequence (P35408 whole entry): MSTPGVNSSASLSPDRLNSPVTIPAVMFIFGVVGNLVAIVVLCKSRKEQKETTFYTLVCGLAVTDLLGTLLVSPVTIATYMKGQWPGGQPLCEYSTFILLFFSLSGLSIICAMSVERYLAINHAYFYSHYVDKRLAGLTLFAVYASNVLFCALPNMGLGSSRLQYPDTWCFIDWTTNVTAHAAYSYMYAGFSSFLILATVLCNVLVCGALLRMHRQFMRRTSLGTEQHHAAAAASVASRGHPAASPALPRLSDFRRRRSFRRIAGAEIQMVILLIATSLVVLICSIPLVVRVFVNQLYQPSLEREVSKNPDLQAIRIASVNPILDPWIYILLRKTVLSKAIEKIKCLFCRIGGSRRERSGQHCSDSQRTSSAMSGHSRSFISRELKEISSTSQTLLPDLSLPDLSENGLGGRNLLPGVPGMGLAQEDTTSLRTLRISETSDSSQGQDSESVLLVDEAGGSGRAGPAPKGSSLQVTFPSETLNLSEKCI

The compound `CN(CCOc1ccccc1)C1(C(=O)NC2(c3ccc(C(=O)O)cc3Cl)CC2)CCOCC1` [Example 52, 3-Chloro-4-[1-[[4-[methyl(2-phenoxyethyl)amino]tetrahydropyran-4-carbonyl]amino]cyclopropyl]benzoic acid, hydrochloride] came in with an IC50 of less than 0.1 µM.
Compound `C[C@H](NC(=O)C1(N2CC[C@@H](Oc3cccc(F)c3)C2)CCOCC1)c1ccc(C(=O)O)cc1` [Example 142, 4-[(1S)-1-[[4-[(3R)-3-(3-Fluorophenoxy)pyrrolidin-1-yl]tetrahydropyran-4-carbonyl]amino]ethyl]benzoic acid, hydrochloride] registered an IC50 of less than 0.1 µM.
Consider `C[C@H](NC(=O)C1(N(C)CCOc2ccccc2)CCCOC1)c1ccc(C(=O)O)cc1` (stereo partly drawn) [Example 73, 4-[(1S)-1-[[3-[Methyl(2-phenoxyethyl)amino]tetrahydropyran-3-carbonyl]amino]ethyl]benzoic acid, hydrochloride], for which the IC50 was less than 1 µM.
`CN(CCOc1ccccc1)C1(C(=O)NC2(c3ccc(C(=O)O)cn3)CC2)CCOCC1` [Example 54, 6-[1-[[4-[Methyl(2-phenoxyethyl)amino]tetrahydropyran-4-carbonyl]amino]cyclopropyl]pyridine-3-carboxylic acid, hydrochloride]: the IC50 was less than 1 µM.
With `C[C@H](NC(=O)C1(NCCOc2ccccc2)CCCCC1)c1ccc(C(=O)O)cc1` [Example 55, 4-[(1S)-1-[[1-(2-Phenoxyethylamino)cyclohexanecarbonyl]amino]ethyl]benzoic acid, hydrochloride] the figure was less than 1 µM.
`COc1ccccc1[C@H](C)NC(=O)C1(N2CC[C@@H](Oc3cccc(C(F)(F)F)c3)C2)CCOCC1` [Example 197, N—((S)-1-(2-Methoxyphenyl)ethyl)-4-((R)-3-(3-(trifluoromethyl)phenoxy)pyrrolidin-1-yl)tetrahydro-2H-pyran-4-carboxamide, hydrochloride] gave an IC50 of less than 1 µM.
As to `COc1ccc(OCCN(C)C2(C(=O)NC3(c4ccc(C(=O)O)cc4)CC3)CCOCC2)cc1` [Example 40, 4-[1-[[4-[2-(4-Methoxyphenoxy)ethyl-methyl-amino]tetrahydropyran-4-carbonyl]amino]cyclopropyl]benzoic acid, hydrochloride], the IC50 was less than 1 µM.
`C[C@H](NC(=O)C1(N2CC[C@@H](Oc3cccc(C(F)(F)F)c3)C2)CCOCC1)c1ccc(S(N)(=O)=O)cc1` [Example 178, N—((S)-1-(4-Sulfamoylphenyl)ethyl)-4-((R)-3-(3-(trifluoromethyl)phenoxy)pyrrolidin-1-yl)tetrahydro-2H-pyran-4-carboxamide, hydrochloride] yielded an IC50 of less than 0.1 µM.
In the case of `C[C@H](NC(=O)C1(N2CC[C@@H](Oc3cccc(C(F)(F)F)c3)C2)CCOCC1)c1cccc(F)c1` [Example 188, N—((S)-1-(3-Fluorophenyl)ethyl)-4-((R)-3-(3-(trifluoromethyl)phenoxy)pyrrolidin-1-yl)tetrahydro-2H-pyran-4-carboxamide, hydrochloride] it was less than 1 µM; in that of `C[C@H](NC(=O)C1(c2ccc(OCCC3CCCCC3)nc2)CCCC1)c1ccc(C(=O)O)cc1` [Example 130, 4-[(1S)-1-[[1-[6-(2-Cyclohexylethoxy)-3-pyridyl]cyclopentanecarbonyl]amino]ethyl]benzoic acid], less than 1 µM.
With `C[C@H](NC(=O)C1(NCCOc2ccccc2)CCCC1)c1ccc(C(=O)O)cc1` [Example 61, 4-[(1S)-1-[[1-(2-Phenoxyethylamino)cyclopentanecarbonyl]amino]ethyl]benzoic acid, hydrochloride] the figure was less than 0.1 µM.
For `C[C@H](NC(=O)C1(N(C)CCOc2ccccc2)CCOC1)c1ccc(C(=O)O)cc1` (stereo partly drawn) [Example 74, 4-[(1S)-1-[[3-[Methyl(2-phenoxyethyl)amino]tetrahydrofuran-3-carbonyl]amino]ethyl]benzoic acid, hydrochloride], the IC50 is less than 0.1 µM.
With `C[C@H](NC(=O)C(C)(C)N1CC[C@@H](Oc2cccc(C(F)(F)F)c2)C1)c1ccc(C(N)=O)cc1` [Example 173, 4-[(1S)-1-[[2-[(3R)-3-[3-(Trifluoromethyl)phenoxy]pyrrolidin-1-yl]-2-methylpropane-carbonyl]amino]ethyl]benzamide, hydrochloride] the figure was less than 0.1 µM; with `C[C@H](NC(=O)C1(c2cccc(OCC3CC3)c2)CCOCC1)c1ccc(C(=O)O)cc1` [Example 101, 4-[(1S)-1-[[4-[3-(Cyclopropylmethoxy)phenyl]tetrahydropyran-4-carbonyl]amino]ethyl]benzoic acid], less than 1 µM; with `CN(CCOc1cccc(C(F)(F)F)c1)C1(C(=O)NC2(c3ccc(C(=O)O)cc3)CC2)CCOCC1` [Example 41, 4-[1-[[4-[2-(3-Trifluoromethylphenoxy)ethyl-methyl-amino]tetrahydropyran-4-carbonyl]amino]cyclopropyl]benzoic acid, hydrochloride], less than 0.1 µM.
In the case of `C[C@H](NC(=O)C1(c2cccc(OCCC3CCCCC3)c2)CCOCC1)c1ccc(C(=O)O)cc1` [Example 105, 4-[(1S)-1-[[4-[3-(2-Cyclohexylethoxy)phenyl]tetrahydropyran-4-carbonyl]amino]ethyl]benzoic acid] it was less than 1 µM.
With `O=C(O)c1ccc(C2(NC(=O)C3(OCCOc4cccc(Cl)c4)CCOCC3)CC2)cc1` [Example 82, 4-[1-[[4-[2-(3-Chlorophenoxy)ethoxy]tetrahydropyran-4-carbonyl]amino]cyclopropyl]benzoic acid] the figure was less than 0.1 µM; with `C[C@H](NC(=O)C1(N2CC[C@@H](Oc3cccc(C(F)(F)F)c3)C2)CCOCC1)c1ccc(F)cc1` [Example 187, N—((S)-1-(4-Fluorophenyl)ethyl)-4-((R)-3-(3-(trifluoromethyl)phenoxy)pyrrolidin-1-yl)tetrahydro-2H-pyran-4-carboxamide, hydrochloride], less than 1 µM.
On to `C[C@H](NC(=O)C1(NCCOc2ccc(Cl)c(Cl)c2)CCOCC1)c1ccc(C(=O)O)cc1` [Example 17, 4-[(1S)-1-[[4-[2-(3,4-Dichlorophenoxy)ethylamino]tetrahydropyran-4-carbonyl]amino]ethyl]benzoic acid, hydrochloride], for which the IC50 is less than 1 µM.
In the case of `C[C@H](NC(=O)C1(c2ccc(OCC3CCCCC3)nc2)CCOCC1)c1ccc(C(=O)O)cc1` [Example 121, 4-[(1S)-1-[[4-[6-(Cyclohexylmethoxy)-3-pyridyl]tetrahydropyran-4-carbonyl]amino]ethyl]benzoic acid] it was less than 1 µM.
With `CN(CCOc1cccc(OC(F)(F)F)c1)C1(C(=O)NC2(c3ccc(C(=O)O)cc3)CC2)CCOCC1` [Example 43, 4-[1-[[4-[2-(3-Trifluoromethoxyphenoxy)ethyl-methyl-amino]tetrahydropyran-4-carbonyl]amino]cyclopropyl]benzoic acid, hydrochloride] the figure was less than 0.1 µM; with `CCC(CC)(C(=O)N[C@@H](C)c1ccc(C(=O)O)cc1)N1CC[C@@H](Oc2cccc(Cl)c2)C1` [Example 210, 4-[(1S)-1-[[2-[(3R)-3-(3-Chlorophenoxy)pyrrolidin-1-yl]-2-ethylbutane-carbonyl]amino]ethyl]benzoic acid, hydrochloride], less than 0.1 µM.
With `C[C@H](NC(=O)C1(NCCOc2ccccc2)CCOC(C)(C)C1)c1ccc(C(=O)O)cc1` (single isomer, unassigned) [Example 72, hydrochloride] the figure was less than 0.1 µM.
For the compound `C[C@H](NC(=O)C1(c2cccc(OC3CCCCC3)c2)CCOCC1)c1ccc(C(=O)O)cc1` [Example 100, 4-[(1S)-1-[[4-[3-(Cyclohexoxy)phenyl]tetrahydropyran-4-carbonyl]amino]ethyl]benzoic acid], the IC50 was less than 1 µM.
In the case of `O=C(O)c1ccc(C2(NC(=O)C3(NCCOc4cccc(Cl)c4)CCOCC3)CC2)cc1` [Example 28, 4-[1-[[4-[2-(3-Chlorophenoxy)ethylamino]tetrahydropyran-4-carbonyl]amino]cyclopropyl]benzoic acid, hydrochloride], the IC50 was less than 0.1 µM.
`Cc1cccc(O[C@@H]2CCN(C3(C(=O)N[C@@H](C)c4ccc(C(=O)O)cc4)CCOCC3)C2)c1` [Example 150, 4-[(1S)-1-[[4-[(3R)-3-(3-Methylphenoxy)pyrrolidin-1-yl]tetrahydropyran-4-carbonyl]amino]ethyl]benzoic acid, hydrochloride] returned an IC50 of less than 0.1 µM.
Take `C[C@H](NC(=O)C1(c2cccc(OCC3CCCCC3)n2)CCOCC1)c1ccc(C(=O)O)cc1` [Example 115, 4-[(1S)-1-[[4-[6-(Cyclohexylmethoxy)-2-pyridyl]tetrahydropyran-4-carbonyl]amino]ethyl]benzoic acid]: the IC50 was less than 1 µM.
As to `COc1ccc([C@H](C)NC(=O)C2(N3CC[C@@H](Oc4cccc(C(F)(F)F)c4)C3)CCOCC2)cc1` [Example 195, N—((S)-1-(4-Methoxyphenyl)ethyl)-4-((R)-3-(3-(trifluoromethyl)phenoxy)pyrrolidin-1-yl)tetrahydro-2H-pyran-4-carboxamide, hydrochloride], the IC50 was less than 0.1 µM.
In turn, `C[C@H](NC(=O)C1(N2CC[C@@H](Oc3cccc(Cl)c3)C2)CCC1)c1ccc(C(=O)O)cc1` [Example 159, 4-[(1S)-1-[[1-[(3R)-3-(3-Chlorophenoxy)pyrrolidin-1-yl]cyclobutane-1-carbonyl]amino]ethyl]benzoic acid, hydrochloride] came in with an IC50 of less than 0.1 µM.
As for `CNC(=O)c1ccc([C@H](C)NC(=O)C2(N(C)CCOc3ccccc3)CCOCC2)cc1` [Example 4, N-[(1S)-1-[4-(Methylcarbamoyl)phenyl]ethyl]-4-[methyl(2-phenoxyethyl)amino]tetrahydropyran-4-carboxamide], the IC50 was less than 1 µM.

The term IC50 denotes the concentration needed to halve the response being measured.
